In US8741951B2, “Non-steroidal compounds for androgen receptor modulation” (CNR—Consiglio Nazionale delle Ricerche, priority 2009, dated 2014):

Target: T1, human androgen receptor (hAR) (Homo sapiens, UniProt P10275)
T1 construct: expressed in transfected cells; host or cells: Cos-7
T1 sequence (P10275 1-920): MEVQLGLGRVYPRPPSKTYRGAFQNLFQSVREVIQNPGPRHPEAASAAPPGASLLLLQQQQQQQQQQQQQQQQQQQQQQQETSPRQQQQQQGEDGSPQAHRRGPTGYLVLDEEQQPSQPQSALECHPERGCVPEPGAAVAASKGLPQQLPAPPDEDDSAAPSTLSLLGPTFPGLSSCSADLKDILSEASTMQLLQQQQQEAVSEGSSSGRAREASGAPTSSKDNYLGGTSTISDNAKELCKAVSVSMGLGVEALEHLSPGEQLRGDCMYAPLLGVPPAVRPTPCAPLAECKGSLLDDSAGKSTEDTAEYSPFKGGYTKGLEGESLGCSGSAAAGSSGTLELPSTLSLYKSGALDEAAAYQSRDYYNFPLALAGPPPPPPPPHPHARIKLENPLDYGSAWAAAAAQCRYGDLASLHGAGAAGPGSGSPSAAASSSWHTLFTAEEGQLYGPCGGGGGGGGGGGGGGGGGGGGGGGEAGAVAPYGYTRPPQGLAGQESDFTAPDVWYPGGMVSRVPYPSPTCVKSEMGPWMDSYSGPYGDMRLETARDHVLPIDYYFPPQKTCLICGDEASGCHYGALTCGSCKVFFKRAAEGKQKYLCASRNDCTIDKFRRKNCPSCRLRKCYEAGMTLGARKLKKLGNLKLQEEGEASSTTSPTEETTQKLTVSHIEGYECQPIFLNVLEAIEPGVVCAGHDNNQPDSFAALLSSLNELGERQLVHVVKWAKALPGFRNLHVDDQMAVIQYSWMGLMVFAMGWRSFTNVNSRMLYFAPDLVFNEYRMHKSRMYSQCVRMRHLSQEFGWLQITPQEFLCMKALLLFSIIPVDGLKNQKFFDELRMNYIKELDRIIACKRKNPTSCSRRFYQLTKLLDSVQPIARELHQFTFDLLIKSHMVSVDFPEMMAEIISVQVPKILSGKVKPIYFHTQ
Assay: hAR transactivation assay (ARE-luc) in Cos-7 cells
Format: cell-based
Excerpt: The cDNA coding hAR was cloned into the pSG5 expression vector as reported previously [Chang, C. S., J. Kokontis, and S. T. Liao 1988 Molecular cloning of human and rat complementary DNA encoding androgen receptors Science 240:324-326].
The 3416 construct (ARE-Luc), containing four copies of the wild-type slp-HRE2 (5′-TGGTCAgccAGTTCT-3′) was cloned in the NheI site in pTK-TATA-Luc [Verrijdt, G., E. Schoenmakers, A. Haelens, B. Peeters, G. Verhoeven, W. Rombauts, and F. Claessens 2000 Change of specificity mutations in androgen selective enhancers J. Biol. Chem. 275:12298-12305].
For androgen-stimulated transcriptional analysis, 32×10^4 Cos-7 cells were plated in phenol red-free DMEM containing 5% charcoal-stripped serum. After 48 h, the cells were transfected by Superfect (Qiagen) with 0.3 μg of 3416-pTK-TATA-Luc construct, together with 1.5 μg of either pSG5-empty plasmid or pSG5-hAR expressing plasmid. […] When indicated, the synthetic compounds were added alone to the cell medium. […] It was dissolved in 0.001% (final concentration) ethanol. Control cells were treated with the vehicle alone. Lysates were prepared and the luciferase activity was measured using a luciferase assay system (Promega). The results were corrected using CH110-expressed beta-galactosidase activity (Amersham Biosciences) and luciferase activity was expressed as fold induction. Results were obtained from two or three different experiments, each performed in duplicate. Mean and SEM are shown.

SMILES: N#Cc1ccc(NC(=O)[C@](O)(Cc2cccs2)CS(=O)(=O)c2ccc(F)cc2)cc1C(F)(F)F [(R)-XXIII-6]
- inhibition of R1881-induced AR transcriptional activation (antagonistic activity), in words (compound 10 μM with 10 nM R1881): antagonistic activity
- agonistic activity on AR transcription, in words (compound alone, 10 nM to 1 μM or 10 μM): does not seem to display agonistic activity
